Results: patent US20240067617A1 (Albireo AB, priority 2022, published 2024)

Key:
hIBAT = molecular target: T1, hIBAT (Homo sapiens, UniProt Q12908); experiment: IBAT (h/m) assay: 3H-taurocholic acid uptake in human IBAT-overexpressing cells; assay type: cell-based; details: 0.25 μM 3H-taurocholic acid + 5 μM cold taurocholic acid, 20 minutes at 37° C., highest test concentration 10 μM
T1 construct: expressed in transfected cells; kept under Puromycin selection
T1 sequence (Q12908 1-348): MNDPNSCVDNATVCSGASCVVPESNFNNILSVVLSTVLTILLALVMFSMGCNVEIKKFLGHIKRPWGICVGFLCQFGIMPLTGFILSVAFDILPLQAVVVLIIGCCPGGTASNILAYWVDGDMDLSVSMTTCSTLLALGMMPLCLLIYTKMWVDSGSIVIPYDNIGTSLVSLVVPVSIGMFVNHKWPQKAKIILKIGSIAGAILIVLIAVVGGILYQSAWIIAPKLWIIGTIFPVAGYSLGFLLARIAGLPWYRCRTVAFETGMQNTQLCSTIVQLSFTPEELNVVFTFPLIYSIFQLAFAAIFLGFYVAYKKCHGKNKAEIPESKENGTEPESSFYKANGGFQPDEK
Description: IBAT (h/m) Assay Protocol
10,000 cells (Human or Mouse IBAT-overexpressing cells) were seeded in 96-wells plate (Corning CLS3809) in 200 μL MEM-alpha medium (Gibco 12571-063) supplemented with 10% FBS (Gibco 10438026) containing Puromycin (Gibco A1113803) (10 μg/mL) and incubated at 37° C. in 5% CO2 for 48 hours. After incubation, media was decanted from the wells and cells were washed two times with 300 μL of basal MEM-alpha medium (FBS-free). After decanting basal MEM-alpha medium each time, plates were tapped against paper towel to ensure maximum removal of residual media. Test inhibitor dilutions (highest test concentration being 10 μM, 3-fold serial dilution, 10 points) prepared in DMSO (Sigma D2650) were added in incubation mix (maintaining 0.2% final DMSO concentration) containing 0.25 μM 3H-taurocholic acid (ARC ART-1368) and 5 μM of cold taurocholic acid (Sigma T4009). 50 μL of incubation mix containing test inhibitors was then added to the wells (in duplicate) and the plates were incubated for 20 minutes in a CO2 incubator at 37° C. After incubation, the reaction was stopped by keeping the plates on ice water mix for 2-3 minutes and then the incubation mix was aspirated completely from the wells. The wells were washed two times with 250 μL of chilled unlabelled 1 mM taurocholic acid dissolved in HEPES (Gibco 15630080)-buffered (10 mM) HBSS (Gibco 14175079) (pH 7.4). The plates were tapped against a paper towel after every wash to ensure maximum removal of blocking buffer.
(§1) 100 μL of MicroScint-20 (PerkinElmer 6013621) was added to the wells and kept overnight at RT before reading the plates in TopCount NXT™ Microplate Scintillation and Luminescence Counter from PerkinElmer under 3H Test protocol (set at 120 seconds reading time per well).
(§2) Preparation of Test Compound Dilutions
(§3) All test compounds were provided in powder form at RT. 10 mM DMSO stocks of the test compounds were prepared, aliquoted and stored at −20° C. From the 10 mM DMSO stock of the compounds, a 3-fold serial dilution in DMSO was prepared to get a total of 10 dilutions of the test compounds. 0.5 μL of this dilution in DMSO was added to 250 μL of FBS-free basal media containing 3H-taurocholic acid and cold taurocholic acid to prepare the incubation mixture.

hLBAT = molecular target: T2, hLBAT (Homo sapiens, UniProt Q14973); experiment: LBAT (h/m) assay: 3H-taurocholic acid uptake in human LBAT-overexpressing cells; assay type: cell-based; details: 0.3 μM 3H-taurocholic acid + 7.5 μM cold taurocholic acid, 20 minutes at 37° C.
T2 construct: expressed in transfected cells; kept under Geneticin selection
T2 sequence (Q14973 1-349): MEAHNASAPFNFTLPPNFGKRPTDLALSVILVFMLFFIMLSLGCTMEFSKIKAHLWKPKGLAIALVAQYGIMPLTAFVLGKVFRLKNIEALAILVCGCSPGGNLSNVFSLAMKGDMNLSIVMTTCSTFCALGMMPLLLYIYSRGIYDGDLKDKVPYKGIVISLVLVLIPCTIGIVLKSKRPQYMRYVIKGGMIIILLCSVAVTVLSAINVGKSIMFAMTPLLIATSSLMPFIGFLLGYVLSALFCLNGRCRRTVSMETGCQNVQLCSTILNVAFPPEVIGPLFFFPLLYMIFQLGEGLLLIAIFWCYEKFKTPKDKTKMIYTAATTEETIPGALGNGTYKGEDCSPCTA
Description: LBAT (h/m) Assay Protocol
20,000 cells (Human or Mouse LBAT-overexpressing cells) were seeded in 96-wells plate (Corning CLS3809) in 100 μL MEM-alpha medium (Gibco 12571-063) supplemented with 10% FBS (Gibco 10438026) containing Geneticin (Gibco 10131-027) (1 mg/mL) and incubated at 37° C. in 5% CO2 for 24 hours. After incubation, media was decanted from the wells and cells were washed two times with 300 μL of basal MEM-alpha medium (FBS-free). After decanting basal MEM-alpha medium each time, plates were tapped against paper towel to ensure maximum removal of residual media. For human LBAT, incubation mix was prepared by adding test inhibitor dilutions (3-fold serial dilution in DMSO (Sigma D2650), 10 points) in MEM-alpha (without FBS) containing 0.3 μM 3H-taurocholic acid (ARC ART-1368) and 7.5 μM cold taurocholic acid (Sigma T4009) (maintaining 0.2% final DMSO concentration). For mouse LBAT, incubation mix was prepared by adding test inhibitor dilutions (3-fold serial dilution in DMSO, 10 points) in MEM-alpha (without FBS) containing 0.3 μM 3H-taurocholic acid and 25 μM cold taurocholic acid maintaining 0.2% final DMSO concentration). 50 μL of incubation mix containing test inhibitors was then added to the wells (in duplicate) and the plates were incubated for 20 minutes in a CO2 incubator at 37° C. After incubation, the reaction was stopped by keeping the plates on ice water mix for 2-3 minutes and then the incubation mix was aspirated completely from the wells. The wells were washed two times with 250 μL of chilled unlabelled 1 mM taurocholic acid dissolved in HEPES (Gibco 15630080)-buffered (10 mM) HBSS (Gibco 14175079) (pH 7.4). The plates were tapped against a paper towel after every wash to ensure maximum removal of blocking buffer.
as §1, with “well, with normal plate orientation).” for “well).”
as §2, §3

SMILES | IC50 (hIBAT) | IC50 (hLBAT)
CCCCC1(C)CN(c2ccccc2)c2cc(SC)c(CSC(C)(C)C(=O)O)cc2S(=O)(=O)C1 (racemic) [Example 18, 2-(((3-Butyl-3-methyl-7-(methylthio)-1,1-dioxido-5-phenyl-2,3,4,5-tetrahydro-1,5-benzothiazepin-8-yl)methyl)thio)-2-methylpropanoic acid] | 404 nM | 135 nM
CCCCC1(CC)CN(c2ccccc2)c2cc(OC)c(CSCC(=O)O)cc2S(=O)(=O)C1 (single isomer, unassigned) [14, enantiomer 1] | 1.1 nM | > 1000 nM
CCCCC1(CC)CN(c2ccccc2)c2cc(OC)c(CSC(C)(C)C(=O)O)cc2S(=O)(=O)C1 (single isomer, unassigned) [26, enantiomer 1] | 195 nM | 104 nM
CCCCC1(CC)CN(c2ccc(F)cc2)c2cc(SC)c(CSC(C)(C)C(=O)O)cc2S(=O)(=O)C1 (racemic) [Example 15, 2-(((3-Butyl-3-ethyl-5-(4-fluorophenyl)-7-(methylthio)-1,1-dioxido-2,3,4,5-tetrahydro-1,5-benzothiazepin-8-yl)methyl)thio)-2-methylpropanoic acid] | 60 nM | 176 nM
CCCCC1(CCCC)CN(c2ccccc2)c2cc(OC)c(CSCC(=O)O)cc2S(=O)(=O)C1 [Example 31, 2-(((3,3-dibutyl-7-methoxy-1,1-dioxido-5-phenyl-2,3,4,5-tetrahydro-1,5-benzothiazepin-8-yl)methyl)thio)acetic acid] | 1.3 nM | > 3330 nM
CCCCC1(C)CN(c2ccccc2)c2cc(SC)c(CSCC(=O)O)cc2S(=O)(=O)N1 (stereo not shown) [Example 54, 2-(((3-Butyl-3-methyl-7-(methylthio)-1,1-dioxido-5-phenyl-2,3,4,5-tetrahydro-1,2,5-benzothiadiazepin-8-yl)methyl)thio)acetic acid] | 0.1 nM | > 1000 nM
CCCCC1(CC)CN(c2ccccc2)c2cc(SC)c(CSCC(=O)O)cc2S(=O)(=O)C1 (single isomer, unassigned) [2, enantiomer 2] | 2.8 nM | 3150 nM
CCCCC1(CC)CN(c2ccccc2)c2cc(OC)c(CSC(C)(C)C(=O)O)cc2S(=O)(=O)C1 (racemic) [Example 25, 2-(((3-butyl-3-ethyl-7-methoxy-1,1-dioxido-5-phenyl-2,3,4,5-tetrahydro-1,5-benzothiazepin-8-yl)methyl)thio)-2-methylpropanoic acid] | 217 nM | 135 nM
CCCCC1(CC)CN(c2ccccc2)c2cc(SC)c(CSCC(=O)O)cc2S(=O)(=O)N1C (stereo not shown) [Example 20, 2-(((3-Butyl-3-ethyl-2-methyl-7-(methylthio)-1,1-dioxido-5-phenyl-2,3,4,5-tetrahydro-1,2,5-benzothiadiazepin-8-yl)methyl)thio)acetic acid] | 522 nM | 2510 nM

Second part, the compound after the results:

IC50 (hIBAT) | IC50 (hLBAT) | SMILES
> 10000 nM | > 10000 nM | CCCCC1CN(c2ccccc2)c2cc(OC)c(CSCC(=O)O)cc2S(=O)(=O)N1C (single isomer, unassigned) [36, enantiomer 1]
14 nM | > 10000 nM | CCCCC1(C)CN(c2ccccc2)c2cc(OC)c(CSCC(=O)O)cc2S(=O)(=O)C1 (racemic) [Example 27, 2-(((3-butyl-7-methoxy-3-methyl-1,1-dioxido-5-phenyl-2,3,4,5-tetrahydro-1,5-benzothiazepin-8-yl)methyl)thio)acetic acid]
349 nM | 200 nM | CCCCC1CN(c2ccc(F)cc2)c2cc(OC)c(CSCC(=O)O)cc2S(=O)(=O)N1C (single isomer, unassigned) [30, enantiomer 2]
2610 nM | 142 nM | CCCC[C@@H]1CN(c2ccccc2)c2cc(OC)c(CSCC(=O)O)cc2S(=O)(=O)N1 [Example 51, (R)-2-(((3-butyl-7-methoxy-1,1-dioxido-5-phenyl-2,3,4,5-tetrahydro-1,2,5-benzothiadiazepin-8-yl)methyl)thio)acetic acid]
0.6 nM | > 2200 nM | CCCCC1(CC)CN(c2ccc(F)cc2)c2cc(SC)c(CSCC(=O)O)cc2S(=O)(=O)C1 (racemic) [Example 6, 2-(((3-butyl-3-ethyl-5-(4-fluorophenyl)-7-(methylthio)-1,1-dioxido-2,3,4,5-tetrahydro-1,5-benzothiazepin-8-yl)methyl)thio)acetic acid]
1.4 nM | > 10000 nM | CCCCC1(CC)CN(c2ccc(F)cc2)c2cc(OC)c(CSCC(=O)O)cc2S(=O)(=O)C1 (single isomer, unassigned) [40, enantiomer 1]
> 10000 nM | 21 nM | CCCCC1CN(c2ccccc2)c2cc(OC)c(CSC(C)(C)C(=O)O)cc2S(=O)(=O)N1C (racemic) [Example 37, 2-(((3-butyl-7-methoxy-2-methyl-1,1-dioxido-5-phenyl-2,3,4,5-tetrahydro-1,2,5-benzothiadiazepin-8-yl)methyl)thio)-2-methylpropanoic acid]
2.8 nM | 4840 nM | CCCCC1(CC)CN(c2ccc(F)cc2)c2cc(SC)c(CSCC(=O)O)cc2S(=O)(=O)C1 (single isomer, unassigned) [7, enantiomer 2]
1600 nM | 6.6 nM | CCCCC1CN(c2ccccc2)c2cc(OC)c(CSC(C)(C)C(=O)O)cc2S(=O)(=O)N1C (single isomer, unassigned) [38, enantiomer 2]
64 nM | > 1000 nM | CCCCC1(CC)CN(c2ccccc2)c2cc(OC)c(CSCC(=O)O)cc2S(=O)(=O)C1 (single isomer, unassigned) [14, enantiomer 2]
5.2 nM | > 1000 nM | CCCCC1(CC)CN(c2ccccc2)c2cc(OC)c(CSCC(=O)O)cc2S(=O)(=O)N1 (racemic) [Example 44, 2-(((3-butyl-3-ethyl-7-methoxy-1,1-dioxido-5-phenyl-2,3,4,5-tetrahydro-1,2,5-benzothiadiazepin-8-yl)methyl)thio)acetic acid]
